According to the METLIN SMRT retention time set (Domingo-Almenara et al. 2019):

Experiment: gradient 5% acetonitrile 3 min, to 50% in 2 min, to 85% in 15 min, held 3 min, 100 µL/min
Details: column: Zorbax Extend-C18 2.1 x 50 mm; eluents: water / acetonitrile, 0.1% formic acid
Summary of the method: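 Retention time was recorded from adduct peaks, which were picked computationally and each inspected manually. Pure standards ran in mixtures of ~100 molecules on HPLC coupled to a quadrupole time-of-flight mass spectrometer, in positive and negative ionization mode, through a Zorbax Extend-C18 column (2.1 × 50 mm, 1.8 μm) at 100 μL/min. Eluents were water and acetonitrile, each with 0.1% formic acid.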

| SMILES | RP-LC retention time [s] |
| --- | --- |
| CC(=O)Nc1cccc(-c2nc(-c3ccc4c(c3)oc(=O)n4C)no2)c1 | 819 |
| Cc1ccc(CNC(=O)C2(C)CCCN(C(=O)NCc3ccccc3)C2)cc1 (configuration not stated) | 878 |
| Cc1cc(C)cc(C(=O)N2CCCC(COc3ccc(C(=O)NC(C)C)cc3)C2)c1 (configuration not stated) | 931 |
| COc1ccc(OC)c2sc(N(Cc3ccco3)C(=O)Cc3cccs3)nc12 | 1050 |
| O=C([C@@H]1C[C@H](F)CN1S(=O)(=O)c1ccc(F)cc1F)N1CCc2ccccc2C1 | 906 |
| CCn1nc(C)c(CCN(C)C(=O)Nc2cccc(C(=O)OC)c2)c1C | 644 |
| COc1ccccc1-n1ccn2cc(-c3cccc(Cl)c3)nc2c1=O | 873 |
| Cn1ccc2cc(C(=O)NC3CCCC3)ccc21 | 806 |
| O=C(Cn1cccc1-c1nnc(-c2ccccc2)o1)N1CCc2ccccc2C1 | 986 |
| O=C(NCc1cccs1)c1cccc(N2CCNC(c3ccccc3)C2)n1 (configuration not stated) | 579 |
| Cc1cccc(-c2noc(C3CCCN3C(=O)c3cccc(Cl)c3)n2)c1 (configuration not stated) | 1140 |
| CC(C)c1nn2c(S(=O)(=O)NC3CCCC3)c(C(C)C)nc2s1 | 1050 |
| COc1ccccc1CC(=O)Nc1cccn2c(C3CCC3)nnc12 | 782 |
| O=C(Nc1nc(-c2ccccc2)cs1)c1c(-c2ccc(Cl)cc2)nc2n1CCS2(=O)=O | 1080 |
| CCOc1ccc(-c2ccc(=O)n(Cc3nc(-c4ccc(C)cc4)no3)n2)cc1 | 1150 |
| COc1cc(Cl)c(CC(=O)c2c[nH]c3ccccc23)cc1OC | 883 |
| Cn1nnnc1SCC(=O)NCCOc1ccc(-c2ccc(F)cc2)nn1 | 654 |
| Cc1ccc(CC(=O)Nc2cc(-c3cccs3)no2)cc1 | 993 |
| COc1ccc(OC)c(CNC(=O)C2CCN(c3nnc(-c4ccccc4)o3)CC2)c1 | 797 |
| CC(NC(=O)Nc1cccc(Br)c1)C(=O)N1CCc2ccccc21 (configuration not stated) | 950 |
| Cc1nc(-c2ccccn2)cc2nn(CC(=O)N3CCOCC3)c(=O)n12 | 754 |
| Cc1cc(C(=O)N2CCC3(CC2)CC(O)CCO3)c(C)o1 (configuration not stated) | 624 |
| CCOc1ccc(NS(=O)(=O)c2cc(-c3c(CC)noc3NC(C)=O)ccc2OC)cc1 | 791 |

| SMILES | RP-LC retention time [s] |
| --- | --- |
| O=C(CSC1CCc2ccccc2NC1=O)Nc1cccc(Br)c1 (configuration not stated) | 872 |
| CCN1C(=O)C2(CCN(S(=O)(=O)c3ccc(Cl)cc3C)CC2)c2ccccc21 | 1200 |
| CC(=O)Nc1nc(C)c(-c2ccc(Cl)c(S(=O)(=O)NCCO)c2)s1 | 685 |
| Cc1ccc(NC(=O)Cn2cccc2-c2nnc(C3CCC3)o2)cc1F | 973 |
| O=C(NCc1cccs1)NC1CC(=O)N(C2CC2)C1 (configuration not stated) | 589 |
| CNC(=O)C1=CCN(C(=O)c2ccc(F)cc2F)CC1 | 644 |
| Cc1cc(C)c(S(=O)(=O)N2CCc3c(c(-c4nnc(-c5ccc(F)cc5)o4)nn3C)C2)cc1C | 1090 |
| O=C(CN1C(=O)CSCC1=O)Nc1ccc2c(c1)OCO2 | 638 |
| Cn1nc2c(c1NC(=O)C1(c3ccc(Cl)cc3)CCCC1)CCC2 | 907 |
| Cc1cc(C)c(S(=O)(=O)NC(C)Cn2cncn2)c(C)c1 (configuration not stated) | 664 |
| Cn1nc(-c2nnc(-c3ccccc3)o2)c2c1CCN(S(=O)(=O)c1ccc(F)c(Cl)c1)C2 | 979 |
| O=C(NCc1ccccc1Cl)c1cn2c(n1)COCC2 | 665 |
| COc1ccc(Cc2nc(Cn3ccnc3)no2)cc1OC | 592 |
| O=C1NCCCCCN(C(=O)Nc2ccccc2F)[C@H]2CCC[C@@H]12 | 734 |
| CCc1nc(-c2csc(S(=O)(=O)N3CCC(C(=O)NC(C)C)CC3)c2)no1 | 812 |
| O=C(C1=C2CCCN2c2ccccc2S1(=O)=O)N1CCN(c2ccc(F)cc2)CC1 | 796 |
| CC(C)n1cc(S(=O)(=O)Nc2ccc(F)c(F)c2)c2cccnc21 | 936 |
| CC(C)C(=O)Nc1ccc(-n2cnc(C(=O)NCc3ccccc3)c2)nc1 | 738 |
| CN1C(=O)c2cc(C(=O)NCCc3ccccc3Cl)nn2CC1(C)C(=O)NCc1ccccc1 (configuration not stated) | 816 |
| CCc1nc2cc(-c3noc(Cc4ccc(Cl)cc4)n3)ccc2o1 | 1140 |
| CCOc1ccc(N(C)C(=O)C2CCCN2S(=O)(=O)c2cc(C(=O)OC)n(C)c2)cc1 (configuration not stated) | 825 |
| COC[C@@H]1CN(c2ncccn2)C[C@H]1C(=O)N(C)Cc1ccco1 | 619 |
| O=C(NC1CCCCC1)c1cccc(Nc2c(-c3ccccc3)nc3cnccn23)c1 | 838 |

| SMILES | RP-LC retention time [s] |
| --- | --- |
| CN(C)c1cccc(C(=O)N2CCC3(CC2)N=C(c2ccccc2)NO3)c1 | 717 |
| O=C(Cn1nc2n(c(=O)c1=O)CCN2c1ccccc1)Nc1ccc(OC(F)(F)F)cc1 | 808 |
| CCc1nn2c(CNS(=O)(=O)c3cc(C)ccc3C)c(-c3ccccc3)nc2s1 | 986 |
| O=C(Nc1cccc([N+](=O)[O-])c1)c1cc2ccccc2cc1O | 1100 |
| CCOC(=O)N1CCN(Cc2nc(-c3ccc(N4CCC(C)CC4)nc3)no2)CC1 | 847 |
| CN(C)C[C@@H]1CN(C2CCOCC2)C[C@H]1NS(=O)(=O)Cc1cccc(F)c1 | 553 |
| Cc1nnc(-c2ccc(S(=O)(=O)N3CCN(c4ccccn4)CC3)o2)o1 | 601 |
| CCOc1ccc(NC(=O)Cn2cccc2-c2nnc(C3CC3)o2)cc1 | 847 |
| Cc1ccc2nc3sc(C(=O)NCC4COc5ccccc5O4)cc3c(=O)n2c1 (configuration not stated) | 819 |
| COc1cc(NC(=O)CSc2nc3nc(C)cc(C)n3n2)cc(OC)c1 | 726 |
| O=C(CN1C(=O)CN(C(=O)NCc2ccccc2)c2ccccc21)NCCc1ccco1 | 803 |
| Cc1ccccc1NC(=O)N(C)CC1CCOCC1 | 726 |
| C=CCc1cc(C)ccc1OCC(O)Cn1cnc2ccccc21 (configuration not stated) | 630 |
| Cc1ccc(-c2nnc(-c3cccc(S(=O)(=O)NCc4cccs4)c3)o2)cc1 | 1030 |
| CCCn1c(CCc2ccccc2NS(=O)(=O)c2ccc3c(c2)OCCO3)nc2ccccc21 | 763 |
| CCS(=O)(=O)c1nc2ccc(NS(=O)(=O)c3ccc(OC)c(Cl)c3)cc2s1 | 907 |
| Cn1cc(C(=O)N2CC(Oc3ccc(-c4nc(-c5ccccc5)no4)cc3)C2)cn1 | 941 |
| O=S(=O)(c1ccc2ccccc2c1)N1CCC(c2nc(-c3ccccn3)no2)CC1 | 952 |
| Cc1cc(N2CCOCC2)nc(N2CCN(C(=O)c3ccc(C(C)(C)C)cc3)CC2)n1 | 723 |
| CSc1ccc(Cl)c(-c2nc(-c3ccc4oc(C)nc4c3)no2)c1 | 1260 |
| COc1ccccc1CNC(=O)Cn1nc2c(N3CCC(C)CC3)nccn2c1=O | 745 |
